A compilation of properties of binary mixtures (doi:10.1021/acs.jced.1c00387)

Assay: xn = mol fraction of the nth substance listed
Details: 81.5 kPa

OCCNCCO + CC(=O)[O-].CC[n+]1ccn(C)c1
viscosity (293.15 K, x1 = 0.2): 202 mPa·s | viscosity (293.15 K, x1 = 0.4): 197 mPa·s | viscosity (293.15 K, x1 = 0.6): 214 mPa·s | viscosity (303.15 K, x1 = 0.4): 108 mPa·s | viscosity (303.15 K, x1 = 0.8): 175 mPa·s | viscosity (313.15 K, x1 = 0.4): 65.2 mPa·s | viscosity (313.15 K, x1 = 0.6): 68.6 mPa·s | viscosity (313.15 K, x1 = 0.8): 95.6 mPa·s | viscosity (313.15 K, x1 = 1): 191 mPa·s | viscosity (323.15 K, x1 = 0.2): 41.2 mPa·s | viscosity (323.15 K, x1 = 0.4): 42.4 mPa·s | viscosity (323.15 K, x1 = 0.6): 43.9 mPa·s | viscosity (323.15 K, x1 = 0.8): 56.8 mPa·s | viscosity (323.15 K, x1 = 1): 102 mPa·s | viscosity (333.15 K, x1 = 0.2): 28.3 mPa·s | viscosity (333.15 K, x1 = 0.6): 29.8 mPa·s | viscosity (333.15 K, x1 = 0.8): 36.1 mPa·s | viscosity (333.15 K, x1 = 1): 58.2 mPa·s | viscosity (343.15 K, x1 = 0.2): 20.4 mPa·s | viscosity (343.15 K, x1 = 0.4): 21.2 mPa·s | viscosity (343.15 K, x1 = 0.6): 21.3 mPa·s | viscosity (343.15 K, x1 = 0.8): 24.4 mPa·s | viscosity (343.15 K, x1 = 1): 35.5 mPa·s | viscosity (353.15 K, x1 = 0.2): 15.3 mPa·s | viscosity (353.15 K, x1 = 0.4): 15.9 mPa·s | viscosity (353.15 K, x1 = 1): 23 mPa·s

CC(C)(N)CO + CC(=O)[O-].CC[n+]1ccn(C)c1
viscosity (293.15 K, x1 = 0.2): 198 mPa·s | viscosity (293.15 K, x1 = 0.4): 136 mPa·s | viscosity (293.15 K, x1 = 0.6): 94.7 mPa·s | viscosity (303.15 K, x1 = 0.2): 104 mPa·s | viscosity (303.15 K, x1 = 0.4): 74.9 mPa·s | viscosity (313.15 K, x1 = 0.2): 60.3 mPa·s | viscosity (313.15 K, x1 = 0.4): 45.5 mPa·s | viscosity (313.15 K, x1 = 0.6): 33.2 mPa·s | viscosity (313.15 K, x1 = 0.8): 29.3 mPa·s | viscosity (313.15 K, x1 = 1): 54.4 mPa·s | viscosity (323.15 K, x1 = 0.2): 38.3 mPa·s | viscosity (323.15 K, x1 = 0.4): 29.9 mPa·s | viscosity (323.15 K, x1 = 0.8): 18.6 mPa·s | viscosity (323.15 K, x1 = 1): 25.5 mPa·s | viscosity (333.15 K, x1 = 0.2): 26 mPa·s | viscosity (333.15 K, x1 = 0.4): 20.9 mPa·s | viscosity (333.15 K, x1 = 0.6): 15.7 mPa·s | viscosity (333.15 K, x1 = 1): 14.6 mPa·s | viscosity (343.15 K, x1 = 0.2): 18.6 mPa·s | viscosity (343.15 K, x1 = 1): 9.2 mPa·s | viscosity (353.15 K, x1 = 0.2): 13.5 mPa·s | viscosity (353.15 K, x1 = 0.4): 11.7 mPa·s | viscosity (353.15 K, x1 = 0.6): 8.8 mPa·s | viscosity (353.15 K, x1 = 0.8): 6.8 mPa·s | viscosity (353.15 K, x1 = 1): 5.9 mPa·s

CC(=O)[O-].CC[n+]1ccn(C)c1 + CC(C)(N)CO
viscosity (293.15 K, x2 = 0): 204 mPa·s | viscosity (303.15 K, x2 = 0): 106 mPa·s | viscosity (313.15 K, x2 = 0): 61.6 mPa·s | viscosity (323.15 K, x2 = 0): 39.4 mPa·s | viscosity (333.15 K, x2 = 0): 26.8 mPa·s | viscosity (343.15 K, x2 = 0): 19.3 mPa·s | viscosity (353.15 K, x2 = 0): 14.6 mPa·s

CC(=O)[O-].CC[n+]1ccn(C)c1 + OCCNCCO
viscosity (323.15 K, x2 = 0): 39.4 mPa·s | viscosity (343.15 K, x2 = 0): 19.3 mPa·s | viscosity (353.15 K, x2 = 0): 14.6 mPa·s

CC(=O)[O-].CC[n+]1ccn(C)c1 + CN(CCO)CCO
viscosity (293.15 K, x2 = 0): 204 mPa·s | viscosity (293.15 K, x2 = 0.2): 193 mPa·s | viscosity (293.15 K, x2 = 0.6): 128 mPa·s | viscosity (293.15 K, x2 = 0.8): 109 mPa·s | viscosity (303.15 K, x2 = 0): 106 mPa·s | viscosity (303.15 K, x2 = 0.2): 105 mPa·s | viscosity (303.15 K, x2 = 0.4): 96 mPa·s | viscosity (303.15 K, x2 = 0.6): 76.2 mPa·s | viscosity (303.15 K, x2 = 0.8): 61.5 mPa·s | viscosity (313.15 K, x2 = 0): 61.6 mPa·s | viscosity (313.15 K, x2 = 0.2): 63.5 mPa·s | viscosity (313.15 K, x2 = 0.4): 59.8 mPa·s | viscosity (313.15 K, x2 = 0.6): 48.8 mPa·s | viscosity (313.15 K, x2 = 0.8): 39.1 mPa·s | viscosity (323.15 K, x2 = 0): 39.4 mPa·s | viscosity (323.15 K, x2 = 0.2): 41.3 mPa·s | viscosity (323.15 K, x2 = 0.6): 33.2 mPa·s | viscosity (323.15 K, x2 = 0.8): 26.4 mPa·s | viscosity (333.15 K, x2 = 0.2): 28.6 mPa·s | viscosity (333.15 K, x2 = 0.4): 28.1 mPa·s | viscosity (333.15 K, x2 = 0.6): 23.6 mPa·s | viscosity (333.15 K, x2 = 0.8): 18.7 mPa·s | viscosity (343.15 K, x2 = 0): 19.3 mPa·s | viscosity (343.15 K, x2 = 0.2): 20.7 mPa·s | viscosity (343.15 K, x2 = 0.4): 20.6 mPa·s | viscosity (343.15 K, x2 = 0.6): 17.5 mPa·s | viscosity (343.15 K, x2 = 0.8): 13.7 mPa·s | viscosity (353.15 K, x2 = 0.2): 15.7 mPa·s | viscosity (353.15 K, x2 = 0.4): 15.6 mPa·s | viscosity (353.15 K, x2 = 0.6): 13.4 mPa·s

CN(CCO)CCO + CC(=O)[O-].CC[n+]1ccn(C)c1
viscosity (303.15 K, x1 = 1): 58 mPa·s | viscosity (323.15 K, x1 = 1): 22.1 mPa·s | viscosity (333.15 K, x1 = 1): 14.9 mPa·s | viscosity (343.15 K, x1 = 1): 10.4 mPa·s | viscosity (353.15 K, x1 = 1): 7.4 mPa·s
